{"source": "patent US20130040291A1", "about": "“Detection and Quantification of Cellular Stress Response Resolution Pathway Expression and Functionality and the Effects of Agents or Conditions Thereupon” (priority 2011, published 2013)", "system": "CDNR4 cells", "format": "cell-based, murine", "experimental": "Following the cessation of the calibrated stress conditions exposure, the SR assay raw data is collected in the form of positive and negative wells (or cell growth sites) and in the form of viable or dead cell clones. The next steps of the assay involve expanding viable clones and determining their phenotypes. When the phenotype of interest being investigated in the SR assay is cell survival, the clones can be sub-classified using the testing listed in Table 6. This testing is performed as follows. Clones are removed from the tissue culture vessels in which they were placed before the start of the calibrated stress conditions exposure (using methods appropriate for the cell type), and subdivided into 4 different aliquots. Each aliquot is re-plated in an appropriate tissue culture vessel in medium containing the following. For one aliquot, the medium is growth medium (conditioned medium may be used) only; for a second aliquot the medium is supplemented with guanosine or folic acid at a concentration sufficient to enhance the survival and expansion of HPRT^− clones; for a third aliquot, the medium contains the same level of agent as used for the calibrated stress condition exposure, and the fourth aliquot is placed in HAT-medium containing an amount of aminopterin that is sufficient to induce growth arrest and/or cell death in Phen-HPRT^− cells of the cell type of interest (see above). Cell morphology (where informative for cell behavior and/or gene expression) and cell growth are monitored over the next 2, to 4 days to determine the response of the cells to these differing conditions. Cell clones can be subjected to additional testing as desired to evaluate further endpoints of interest and/or can be cryopreserved for future evaluations.\nTo subgroup Phen-ah clones as Phen-alt-rev or Phen-alt-irr, a representative group of these clones is tested further by subjecting the clones to repeated rounds of exposure to the calibrated stress conditions. Other stress inducing agents also may be used. Each exposure cycle is followed by a period of time to allow the cells to recover, and thus, to resolve the stress environment. After each exposure round, the percentage of cells that are resistant to the stress inducing agent or condition is recorded. […] The parental cell response that has been used in the examples below is defined as greater than 99% sensitivity to the calibrated stress conditions agent or condition, as evidenced by cell cycle arrest and/or cell death following exposure to the SR induction agent. Other stress response endpoints may be used and will depend upon the nature of the stress inducing agent used; these endpoints are incorporated herein.\nThe murine mammary epithelial cells designated CDNR4 were grown in their preferred growth medium (42% DMEM, 42% Hams F-12, 12% FBS, 1% 100×L-glutamine, 1% pen-strep, 0.5% to 1% bovine pituitary extract) until approximately 6 million cells were available. Cells were removed from the expansion flasks, counted, and replated at a rate of 500,000 cells per […] flask in growth medium. The flasks were assigned randomly to one of two groups: a vehicle-alone exposure (control group); an ENU-exposure (treated) group. […] For group 1 flasks, a volume of growth medium equal to the volume of ENU was added to the flasks. The cells were exposed to this solution for 1 hour at 37° C.; at the end of this time the solution was removed, the cells were washed with PBS at 37° C., and the cells were re-fed with fresh growth medium.\nAt the end of 2 weeks, the cells were removed from the flasks with trypsin/EDTA and passed through a 20 to 25 micron pore size sterile Nytran filter. The cell suspension was evaluated by light microscopy for evidence of large clumps, and was re-filtered if necessary using a new sterile Nytran filter of the same size to remove any apparent large clumps of cells. […]", "key": {"[1]": {"conditions": "ENU 2.0 micrograms/ml 1 hour (so in the source), 2-week expression period, 6-TG stress"}, "[2]": {"conditions": "ENU-exposed, average 6 out of 38 clones"}}, "data": [{"smiles": "CCN(N=O)C(N)=O", "note": "[ENU, ethylnitrosourea]", "values": [{"measurement": "CE / mutant frequency of Phen-HPRT^− clones", "setting": "[1]", "result": "160±40 ×10^−6"}, {"measurement": "CE of Phen-alt-irr clones", "setting": "[1]", "result": "690±170 ×10^−6"}, {"measurement": "CE of Phen-alt-rev clones", "setting": "[1]", "result": "180±130 ×10^−6"}, {"measurement": "CE of Phen-parental clones", "setting": "[1]", "result": "95±20 ×10^−6"}, {"measurement": "reduction in total pro-survival pathway function, ENU-exposed versus vehicle-exposed", "setting": "ENU 20 micrograms/ml 1 hour", "result": "~3", "unit": "fold"}, {"measurement": "fCEs for all surviving cell clones (total pro-survival pathway function)", "setting": "ENU 20 micrograms/ml 1 hour, 6-TG 30 micrograms/ml 4 days, 600 cells per well", "result": "1210±380 ×10^−6"}, {"measurement": "surviving population with damage, Phen-alt-rev clones included", "setting": "ENU-exposed", "result": 92, "unit": "%"}, {"measurement": "average CE for Phen-Hprt- and Phen-alt clones, Phen-alt-rev clones included", "setting": "ENU-exposed cells", "result": "1100±350 ×10^−6"}, {"measurement": "combined average fCE of Phen-parental and Phen-alt-rev clones", "setting": "ENU-exposed cells", "result": "280±150 ×10^−6"}, {"measurement": "average fCE for Phen-Hprt^− clones and Phen-alt clones together (damage tolerance pathway function)", "setting": "ENU-exposed cells, without Phen-alt-rev clones", "result": "870±220 ×10^−6"}, {"measurement": "effect per unit dose of the calibrated stress conditions exposure upon CEs for Phen-parental clones", "setting": "ENU-exposed cells, 95÷35 micrograms 6-TG", "result": 2.7, "unit": "CE/microgram 6-TG"}, {"measurement": "post-calibrated stress condition fCEs", "setting": "ENU-exposed cells, SRID-10% of 6-TG (Example 5)", "result": "95 ×10^−6"}, {"measurement": "surviving population with permanent genomic changes", "setting": "ENU-exposed, Hprt mutations plus irreversible phenotypic alterations", "result": 75, "unit": "%"}, {"measurement": "Phen-parental clones as share of the final surviving treated cell population", "setting": "ENU-exposed, average 3 out of 38 clones", "result": 9, "unit": "%"}, {"measurement": "surviving clones with evidence of DNA damage in the Hprt gene", "setting": "[2]", "result": 15, "unit": "%"}, {"measurement": "surviving clones with reversible phenotypic alterations", "setting": "[2]", "result": 17, "unit": "%"}, {"measurement": "surviving clones with irreversible phenotypic changes (Phen-alt-irr)", "setting": "ENU-exposed, average 23 out of 38 clones", "result": 60, "unit": "%"}, {"measurement": "total survival frequency", "setting": "ENU-treated cells, calibrated stress conditions at SRID-70% to 80%", "result": "approximately 128 ×10^−6"}, {"measurement": "reduction in damage avoidance pathway function, Phen-parental clones only", "setting": "treated versus control cells", "result": "approximately 25 fold"}, {"measurement": "reduction in damage avoidance pathway function, Phen-parental and Phen-alt-rev together", "setting": "versus Phen-parental fCE of control cells", "result": 12, "unit": "fold"}]}]}
